Data as given in ChEMBL document CHEMBL1933046, “Synthesis and antibacterial activity of a novel series of acylides active against community acquired respiratory pathogens” (2012).
Values after ≈ are worked out from the molar mass of the structure shown. Active and inactive are the calls of the source. No cut-off for these calls is given here.

Legend:
Streptococcus pneumoniae [1] = test: Antibacterial activity against Streptococcus pneumoniae 994 expressing mef gene by NCCLS method; type: functional
Streptococcus pneumoniae [2] = test: Antibacterial activity against telethromycin-resistant Streptococcus pneumoniae 217 expressing erm gene by NCCLS method; type: functional
Streptococcus pneumoniae [3] = test: Antibacterial activity against telethromycin-resistant Streptococcus pneumoniae 3489 expressing erm gene by NCCLS method; type: functional
Moraxella catarrhalis = test: Antibacterial activity against Moraxella catarrhalis 8176 by NCCLS method; type: functional
Streptococcus pneumoniae [4] = test: Antibacterial activity against telethromycin-resistant Streptococcus pneumoniae 162 expressing erm gene by NCCLS method; type: functional
Streptococcus pneumoniae [5] = test: Antibacterial activity against Streptococcus pneumoniae 3579 expressing erm gene by NCCLS method; type: functional
Streptococcus pneumoniae [6] = test: Antibacterial activity against telethromycin-resistant Streptococcus pneumoniae 5099 expressing erm gene by NCCLS method; type: functional
Streptococcus pneumoniae [7] = test: Antibacterial activity against telethromycin-resistant Streptococcus pneumoniae 3488 expressing erm gene by NCCLS method; type: functional
Streptococcus pyogenes = test: Antibacterial activity against Streptococcus pyogenes 19615 by NCCLS method; type: functional
Streptococcus pneumoniae [8] = test: Antibacterial activity against telethromycin-resistant Streptococcus pneumoniae 5051 expressing erm gene by NCCLS method; type: functional
Streptococcus pneumoniae [9] = test: Antibacterial activity against telethromycin-resistant Streptococcus pneumoniae 3271 expressing erm gene by NCCLS method; type: functional
Streptococcus pneumoniae [10] = test: Antibacterial activity against telethromycin-resistant Streptococcus pneumoniae 2840 expressing erm gene by NCCLS method; type: functional
Streptococcus pneumoniae [11] = test: Antibacterial activity against Streptococcus pneumoniae 49619 by NCCLS method; type: functional
Streptococcus pneumoniae [12] = test: Antibacterial activity against telethromycin-resistant Streptococcus pneumoniae AB14 expressing erm gene by NCCLS method; type: functional
Streptococcus pneumoniae [13] = test: Antibacterial activity against telethromycin-resistant Streptococcus pneumoniae B739 expressing erm gene by NCCLS method; type: functional
Streptococcus pneumoniae [14] = test: Antibacterial activity against Streptococcus pneumoniae 6303 by NCCLS method; type: functional
Streptococcus pneumoniae [15] = test: Antibacterial activity against telethromycin-resistant Streptococcus pneumoniae 3390 expressing erm gene by NCCLS method; type: functional
Streptococcus pneumoniae [16] = test: Antibacterial activity against Streptococcus pneumoniae 3579 expressing erm gene infected in mouse systemic infection model; type: functional, organism-based
Streptococcus pneumoniae [17] = test: Antibacterial activity against telethromycin-resistant Streptococcus pneumoniae 757 expressing erm gene by NCCLS method; type: functional
Haemophilus influenzae = test: Antibacterial activity against Haemophilus influenzae 38 by NCCLS method; type: functional

SMILES	MIC (Streptococcus pneumoniae [1])	MIC (Streptococcus pneumoniae [2])	MIC (Streptococcus pneumoniae [3])	MIC (Moraxella catarrhalis)	MIC (Streptococcus pneumoniae [4])	MIC (Streptococcus pneumoniae [5])	MIC (Streptococcus pneumoniae [6])	MIC (Streptococcus pneumoniae [7])	MIC (Streptococcus pyogenes)	MIC (Streptococcus pneumoniae [8])	MIC (Streptococcus pneumoniae [9])	MIC (Streptococcus pneumoniae [10])	MIC (Streptococcus pneumoniae [11])	MIC (Streptococcus pneumoniae [12])	MIC (Streptococcus pneumoniae [13])	MIC (Streptococcus pneumoniae [14])	MIC (Streptococcus pneumoniae [15])	Activity (Streptococcus pneumoniae [16])	MIC (Streptococcus pneumoniae [17])	MIC (Haemophilus influenzae)
C=CCN(C)[C@H]1C[C@@H](C)O[C@@H](O[C@@H]2[C@@H](C)[C@H](OC(=O)Cc3ccccn3)[C@@H](C)C(=O)O[C@H](CC)[C@@]3(C)OC(=O)N(CCCCn4cnc(-c5ccnc(N)c5)c4)[C@@H]3[C@@H](C)C(=O)[C@H](C)C[C@@]2(C)OC)[C@@H]1O	0.06 µg/mL (≈ 0.0616 µM)	0.125 µg/mL (≈ 0.128 µM)	1 µg/mL (≈ 1.03 µM)	0.06 µg/mL (≈ 0.0616 µM)	1 µg/mL (≈ 1.03 µM)	0.125 µg/mL (≈ 0.128 µM)	0.06 µg/mL (≈ 0.0616 µM)	0.125 µg/mL (≈ 0.128 µM)	2 µg/mL (≈ 2.05 µM)	0.06 µg/mL (≈ 0.0616 µM)	2 µg/mL (≈ 2.05 µM)	0.5 µg/mL (≈ 0.513 µM)	0.03 µg/mL (≈ 0.0308 µM)	0.03 µg/mL (≈ 0.0308 µM)	1 µg/mL (≈ 1.03 µM)	0.03 µg/mL (≈ 0.0308 µM)	0.125 µg/mL (≈ 0.128 µM)	Active	0.125 µg/mL (≈ 0.128 µM)	
C=CCN(C)[C@H]1C[C@@H](C)O[C@@H](O[C@@H]2[C@@H](C)[C@H](OC(=O)Cc3ccccn3)[C@@H](C)C(=O)O[C@H](CC)[C@@]3(C)OC(=O)N(CCCCn4cncc4-c4ccco4)[C@@H]3[C@@H](C)C(=O)[C@H](C)C[C@@]2(C)OC)[C@@H]1O	0.06 µg/mL (≈ 0.0633 µM)	0.5 µg/mL (≈ 0.527 µM)	1 µg/mL (≈ 1.05 µM)	0.125 µg/mL (≈ 0.132 µM)	2 µg/mL (≈ 2.11 µM)	0.25 µg/mL (≈ 0.264 µM)	0.125 µg/mL (≈ 0.132 µM)	0.25 µg/mL (≈ 0.264 µM)	0.015 µg/mL (≈ 0.0158 µM)	0.25 µg/mL (≈ 0.264 µM)	1 µg/mL (≈ 1.05 µM)	1 µg/mL (≈ 1.05 µM)	0.015 µg/mL (≈ 0.0158 µM)	0.125 µg/mL (≈ 0.132 µM)	1 µg/mL (≈ 1.05 µM)	0.008 µg/mL (≈ 0.00844 µM)	0.25 µg/mL (≈ 0.264 µM)	Active	0.5 µg/mL (≈ 0.527 µM)	
C=CCN(C)[C@H]1C[C@@H](C)O[C@@H](O[C@@H]2[C@@H](C)[C@H](OC(=O)Cc3ccccn3)[C@@H](C)C(=O)O[C@H](CC)[C@@]3(C)OC(=O)N(CCCCn4cnc(-c5ccco5)c4)[C@@H]3[C@@H](C)C(=O)[C@H](C)C[C@@]2(C)OC)[C@@H]1O	0.125 µg/mL (≈ 0.132 µM)	1 µg/mL (≈ 1.05 µM)	2 µg/mL (≈ 2.11 µM)	0.25 µg/mL (≈ 0.264 µM)	4 µg/mL (≈ 4.22 µM)	0.125 µg/mL (≈ 0.132 µM)	0.25 µg/mL (≈ 0.264 µM)	0.5 µg/mL (≈ 0.527 µM)	0.03 µg/mL (≈ 0.0316 µM)	0.25 µg/mL (≈ 0.264 µM)	2 µg/mL (≈ 2.11 µM)	2 µg/mL (≈ 2.11 µM)	0.03 µg/mL (≈ 0.0316 µM)	0.25 µg/mL (≈ 0.264 µM)	2 µg/mL (≈ 2.11 µM)	0.06 µg/mL (≈ 0.0633 µM)	0.5 µg/mL (≈ 0.527 µM)	Active	1 µg/mL (≈ 1.05 µM)	< 0.06 µg/mL
C=CCN(C)[C@H]1C[C@@H](C)O[C@@H](O[C@@H]2[C@@H](C)[C@H](OC(=O)Cc3ccccn3)[C@@H](C)C(=O)O[C@H](CC)[C@@]3(C)OC(=O)N(CCCCn4ccc5cccnc54)[C@@H]3[C@@H](C)C(=O)[C@H](C)C[C@@]2(C)OC)[C@@H]1O	0.25 µg/mL (≈ 0.268 µM)	1 µg/mL (≈ 1.07 µM)	2 µg/mL (≈ 2.15 µM)	0.25 µg/mL (≈ 0.268 µM)	4 µg/mL (≈ 4.29 µM)	1 µg/mL (≈ 1.07 µM)	0.25 µg/mL (≈ 0.268 µM)	0.5 µg/mL (≈ 0.536 µM)	0.03 µg/mL (≈ 0.0322 µM)	0.5 µg/mL (≈ 0.536 µM)	4 µg/mL (≈ 4.29 µM)	2 µg/mL (≈ 2.15 µM)	0.03 µg/mL (≈ 0.0322 µM)	0.25 µg/mL (≈ 0.268 µM)	2 µg/mL (≈ 2.15 µM)	0.03 µg/mL (≈ 0.0322 µM)	0.25 µg/mL (≈ 0.268 µM)	Active	1 µg/mL (≈ 1.07 µM)	< 0.06 µg/mL
